Assay results as given in ChEMBL document CHEMBL1201862, “PubChem BioAssay data set” (2004).
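Five compound concentrations were applied to cells in 96-well plates for 48 hours; endpoints were derived by simple linear interpolation of the resulting dose-response curve. GI50: concentration for 50% inhibition of growth.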 Active and inactive are the calls of the source. No stated cut-off is given here; in the data, active = GI50 up to about 1.1 µM and inactive = higher.

Legend:
Experiment in all cases: NCI tumour cell line growth inhibition, 48 h
SF-295 = system: SF-295
HCT-15 = system: HCT-15
SN12C = system: SN12C
SF-539 = system: SF-539
RPMI-8226 = system: RPMI-8226
OVCAR-8 = system: OVCAR-8
UO-31 = system: UO-31
UACC-62 = system: UACC-62
COLO 205 = system: COLO 205
HOP-18 = system: HOP-18
CCRF-CEM = system: CCRF-CEM
MOLT-4 = system: MOLT-4
XF498 = system: XF498
SR = system: SR
SNB-78 = system: SNB-78
NCI-H522 = system: NCI-H522
U-251 = system: U-251
M14 = system: M14
Malme-3M = system: Malme-3M
IGROV-1 = system: IGROV-1
SK-MEL-2 = system: SK-MEL-2
KM12 = system: KM12
SK-OV-3 = system: SK-OV-3
M19-MEL = system: M19-MEL
CAKI-1 = system: CAKI-1
UACC-257 = system: UACC-257
HT-29 = system: HT-29
K562 = system: K562
DMS-273 = system: DMS-273
SNB-75 = system: SNB-75
SW-620 = system: SW-620
786-0 = system: 786-0
HOP-62 = system: HOP-62
OVCAR-3 = system: OVCAR-3
LXFL 529 = system: LXFL 529
NCI-H226 = system: NCI-H226
TK-10 = system: TK-10
RXF 631 = system: RXF 631
SK-MEL-28 = system: SK-MEL-28
NCI-H23 = system: NCI-H23
HOP-92 = system: HOP-92
A549 = system: A549
OVCAR-5 = system: OVCAR-5
HCT-116 = system: HCT-116
ACHN = system: ACHN
KM-20L2 = system: KM-20L2
SK-MEL-5 = system: SK-MEL-5
A498 = system: A498
LOX IMVI = system: LOX IMVI
OVCAR-4 = system: OVCAR-4
HCC 2998 = system: HCC 2998
DMS-114 = system: DMS-114
HL-60 = system: HL-60
NCI-H460 = system: NCI-H460
SF-268 = system: SF-268
RXF 393 = system: RXF 393
EKVX = system: EKVX
SNB-19 = system: SNB-19
DLD-1 = system: DLD-1

For `CCC(=O)C(C)C(=O)C(=O)C(=O)OC` (centres undefined), the GI50 (SF-295) was > 100 µM (inactive), the GI50 (HCT-15) was over 55.8 µM and the GI50 (SN12C) was > 100 µM (inactive). For the same compound, the GI50 (SF-539) was > 100 µM (inactive), the GI50 (RPMI-8226) was > 100 µM (inactive) and the GI50 (OVCAR-8) was > 100 µM (inactive). The GI50 (UO-31) was > 100 µM (inactive), the GI50 (UACC-62) was > 100 µM (inactive) and the GI50 (COLO 205) was > 60.5 µM (inactive). The GI50 (HOP-18) was > 100 µM (inactive), the GI50 (CCRF-CEM) was > 46.9 µM (inactive) and the GI50 (MOLT-4) was > 51.4 µM (inactive). The GI50 (XF498) was > 100 µM (inactive), the GI50 (SR) was > 100 µM (inactive) and the GI50 (SNB-78) was > 100 µM (inactive). For the same compound, the GI50 (NCI-H522) was > 100 µM (inactive), the GI50 (U-251) was > 47.3 µM (inactive) and the GI50 (M14) was > 100 µM (inactive). For the same compound, the GI50 (Malme-3M) was > 100 µM (inactive), the GI50 (IGROV-1) was > 100 µM (inactive) and the GI50 (SK-MEL-2) was > 100 µM (inactive). For the same compound, the GI50 (KM12) was > 100 µM (inactive), the GI50 (SK-OV-3) was > 100 µM (inactive) and the GI50 (M19-MEL) was > 100 µM (inactive). The GI50 (CAKI-1) was > 100 µM (inactive), the GI50 (UACC-257) was > 94.6 µM (inactive) and the GI50 (HT-29) was 97.1 µM (inactive). For the same compound, the GI50 (K562) was > 66.1 µM (inactive), the GI50 (DMS-273) was > 100 µM (inactive) and the GI50 (SNB-75) was > 100 µM (inactive). For the same compound, the GI50 (SW-620) was > 26.2 µM (inactive), the GI50 (786-0) was > 100 µM (inactive) and the GI50 (HOP-62) was > 100 µM (inactive). The GI50 (OVCAR-3) was > 100 µM (inactive), the GI50 (LXFL 529) was > 100 µM (inactive) and the GI50 (NCI-H226) was > 100 µM (inactive). The GI50 (TK-10) was > 100 µM (inactive), the GI50 (RXF 631) was > 100 µM (inactive) and the GI50 (SK-MEL-28) was > 100 µM (inactive). The GI50 (NCI-H23) was > 100 µM (inactive), the GI50 (HOP-92) was > 100 µM (inactive) and the GI50 (A549) was > 100 µM (inactive). For the same compound, the GI50 (OVCAR-5) was > 100 µM (inactive), the GI50 (HCT-116) was > 62.8 µM (inactive) and the GI50 (ACHN) was > 100 µM (inactive). For the same compound, the GI50 (KM-20L2) was > 100 µM (inactive), the GI50 (SK-MEL-5) was > 100 µM (inactive) and the GI50 (A498) was > 100 µM (inactive). The GI50 (LOX IMVI) was > 80.7 µM (inactive), the GI50 (OVCAR-4) was > 100 µM (inactive) and the GI50 (HCC 2998) was > 100 µM (inactive). The GI50 (DMS-114) was > 82.8 µM (inactive), the GI50 (HL-60) was > 44.4 µM (inactive) and the GI50 (NCI-H460) was > 100 µM (inactive). The GI50 (SF-268) was > 100 µM (inactive), the GI50 (RXF 393) was > 63.5 µM (inactive) and the GI50 (EKVX) was > 100 µM (inactive). For the same compound, the GI50 (SNB-19) was > 100 µM (inactive) and the GI50 (DLD-1) was > 100 µM (inactive).
